This note sets out measurements from ChEMBL document CHEMBL5113439, “Rationally Designed Amanitins Achieve Enhanced Cytotoxicity” (J Med Chem, 2022).

Numbered stars: 1 amine (or outer) side, 2 acyl side, 3 side chain; on linkers, the order of the positions; unused ones are H or OH. Bridge positions count the residues as written; N and C are the ends. Square brackets hold non-standard residues; d marks the D form. Peptide text beside a SMILES is read from it. Trp(2-yl) = O=C([C@H](Cc1c([*:3])[nH]c2ccccc12)N[*:1])[*:2]; X4 = O=C([C@H](Cc1c([*:3])[nH]c2ccc(O)cc12)N[*:1])[*:2]; Ile(4R-OH,5-OH) = C[C@H]([C@H](N)C(=O)O)[C@@H](O)CO; X5 = C[C@@H](S[*:3])[C@H](N[*:1])C(=O)[*:2]; X2 = CC[C@H](C)[C@@H](CNNC(=O)[*:2])N[*:1]; X3 = C[C@H](S[*:3])[C@H](N[*:1])C(=O)[*:2]; X1 = CS[C@H](C)[C@H](N[*:1])C(=O)[*:2]; Nva(3-Et) = CCC(CC)[C@H](N)C(=O)O; αMeI = CC[C@H](C)[C@](C)(N)C(=O)O; Hyp = O=C(O)[C@@H]1C[C@@H](O)CN1; Pen = CC(C)(S)[C@H](N)C(=O)O; azaGly = NNC(=O)O

The nature of data set [1]: Cytotoxicity against chinese hamster CHO cells assessed as reduction in cell viability incubated for 72 hrs by MTT assay. It counts as toxicity, cell-based, Cricetulus griseus.
Data set [2] is described as follows: Cytotoxicity against human HEK293 cells assessed as reduction in cell viability incubated for 72 hrs by MTT assay. Type of data set: toxicity, cell-based. (Tetrazolium assays rely on reduction of a dye to a coloured formazan, in cell work by metabolically active cells.)
The test system of another data set is HeLa. Nature of the data set: Cytotoxicity against human HeLa cells assessed as reduction in cell viability incubated for 72 hrs by MTT assay. Type of data set: functional, cell-based.
For a further data set, the system named is HepG2. As to the kind of experiment: Cytotoxicity against human HepG2 cells assessed as reduction in cell viability incubated for 72 hrs by MTT assay. Type of data set: functional, cell-based. The settings on record: HepG2, 72 h.
A short description of data set [3]: Inhibition of RNA polymerase 2 in human HeLa cells nuclear extract using DNA template as substrate incubated for 60 mins by TRA. Type of data set: subcellular, Nucleus.

The term IC50 denotes the concentration that gives 50% inhibition. With `CC[C@H](C)[C@@H]1NC(=O)CNC(=O)[C@@H]2Cc3c([nH]c4cc(O)ccc34)[S+]([O-])C[C@H](NC(=O)CNC1=O)C(=O)N[C@@H](CC(N)=O)C(=O)N1C[C@H](O)C[C@H]1C(=O)N[C@@H]([C@@H](C)[C@@H](O)CO)C(=O)N2` (stereo partly drawn), the half-inhibitory concentration (IC50) at 72 h in data set [1] and in data set [2] was 1000 nM each time. Moreover, the half-inhibitory concentration (IC50) in the data set with HeLa was 1000 nM; with HepG2, 560 nM; in data set [3] it was 1 nM.

As for `C[C@H]([C@@H]1NC(=O)[C@@H]2C[C@@H](O)CN2C(=O)[C@H](CC(N)=O)NC(=O)[C@@H]2CSc3[nH]c4ccccc4c3C[C@H](NC1=O)C(=O)NCC(=O)N[C@H](C1CCCC1)C(=O)NCC(=O)N2)[C@@H](O)CO`, the IC50 at 72 h in data set [1] came out at 6900 nM. In data set [3], this molecule displayed an IC50 of 47 nM.

Take `CC[C@H](C)[C@@H]1NC(=O)CNC(=O)[C@@H]2Cc3c([nH]c4ccccc34)SC[C@H](NC(=O)CNC1=O)C(=O)N[C@@H](CC(N)=O)C(=O)N1C[C@H](O)C[C@H]1C(=O)N[C@@H]([C@@H](C)[C@@H](O)CO)C(=O)N2` (cyclo(CN[Hyp][Ile(4R-OH,5-OH)][Trp(2-yl)]GIG); thioether 1-5): the IC50 at 72 h in data set [1] stood at 1300 nM. For the same molecule, the half-inhibitory concentration (IC50) in data set [3] was found to be 9.5 nM.

`CO[C@H](C)[C@@H]1NC(=O)CNC(=O)[C@@H]2Cc3c([nH]c4ccccc34)SC[C@H](NC(=O)CNC1=O)C(=O)N[C@@H](CC(N)=O)C(=O)N1C[C@H](O)C[C@H]1C(=O)N[C@@H]([C@@H](C)[C@@H](O)CO)C(=O)N2` (cyclo(CN[Hyp][Ile(4R-OH,5-OH)][Trp(2-yl)]GT(Me)G); thioether 1-5): the IC50 at 72 h in data set [1] was greater than 20000 nM. The IC50 in data set [3] was found to be 42 nM.

For `CCC(CC)[C@@H]1NC(=O)CNC(=O)[C@@H]2Cc3c([nH]c4ccccc34)SC[C@H](NC(=O)CNC1=O)C(=O)N[C@@H](CC(N)=O)C(=O)N1C[C@H](O)C[C@H]1C(=O)N[C@@H]([C@@H](C)[C@@H](O)CO)C(=O)N2` (cyclo(CN[Hyp][Ile(4R-OH,5-OH)][Trp(2-yl)]G[Nva(3-Et)]G); thioether 1-5), the IC50 at 72 h in data set [1] was found to be 780 nM; in data set [2], 370 nM. Half-maximal inhibition in data set [3] (IC50) required 8.5 nM.

Take `CS[C@H](C)[C@@H]1NC(=O)CNC(=O)[C@@H]2Cc3c([nH]c4ccccc34)SC[C@H](NC(=O)CNC1=O)C(=O)N[C@@H](CC(N)=O)C(=O)N1C[C@H](O)C[C@H]1C(=O)N[C@@H]([C@@H](C)[C@@H](O)CO)C(=O)N2` (cyclo(CN[Hyp][Ile(4R-OH,5-OH)][Trp(2-yl)]G[X1]G); thioether 1-5): the concentration for half-maximal inhibition (IC50) at 72 h in data set [1] was determined as 5600 nM; in data set [2], 1500 nM. For the same molecule, the results for the concentration for half-maximal inhibition (IC50) (with HeLa; in the data set with HepG2; in data set [3]) were 4000 nM, greater than 10000 nM and 8.6 nM, respectively.

For `CC[C@H](C)[C@H]1CNNC(=O)N[C@H]2CSc3[nH]c4ccccc4c3C[C@H](NC(=O)[C@H]([C@@H](C)[C@@H](O)CO)NC(=O)[C@@H]3C[C@@H](O)CN3C(=O)[C@H](CC(N)=O)NC2=O)C(=O)NCC(=O)N1` (cyclo(CN[Hyp][Ile(4R-OH,5-OH)][Trp(2-yl)]G[X2]); thioether 1-5), the figures for the half-inhibitory concentration (IC50) at 72 h in data set [1] and in data set [2] were 380 nM and 460 nM, respectively. Besides, the IC50 came to 830 nM in the data set with HeLa, 2700 nM in the data set on HepG2 and 4.7 nM in data set [3].

`CC[C@H](C)[C@]1(C)NC(=O)NNC(=O)[C@@H]2Cc3c([nH]c4ccccc34)SC[C@H](NC(=O)CNC1=O)C(=O)N[C@@H](CC(N)=O)C(=O)N1C[C@H](O)C[C@H]1C(=O)N[C@@H]([C@@H](C)[C@@H](O)CO)C(=O)N2` (cyclo(CN[Hyp][Ile(4R-OH,5-OH)][Trp(2-yl)][azaGly][αMeI]G); thioether 1-5): the figures for the concentration for half-maximal inhibition (IC50) at 72 h in data set [1] and in data set [2] were 2400 nM and 450 nM, respectively. For the same molecule, the IC50 in data set [3] came out at 5.3 nM.

`CCC(CC)[C@@H]1NC(=O)CNC(=O)[C@@H]2Cc3c([nH]c4ccc(O)cc34)SC[C@H](NC(=O)CNC1=O)C(=O)N[C@@H](CC(N)=O)C(=O)N1C[C@H](O)C[C@H]1C(=O)N[C@@H]([C@@H](C)[C@@H](O)CO)C(=O)N2` (cyclo(CN[Hyp][Ile(4R-OH,5-OH)][X4]G[Nva(3-Et)]G); thioether 1-5): the half-inhibitory concentration (IC50) at 72 h in data set [1] came to 2500 nM; in data set [2], 320 nM. This molecule displayed an IC50 in data set [3] of 17.8 nM.

As for `CC[C@H](C)[C@@H]1NC(=O)CNC(=O)[C@@H]2Cc3c([nH]c4ccccc34)SC(C)(C)[C@H](NC(=O)CNC1=O)C(=O)N[C@@H](CC(N)=O)C(=O)N1C[C@H](O)C[C@H]1C(=O)N[C@@H]([C@@H](C)[C@@H](O)CO)C(=O)N2` (cyclo(GIG[Pen]N[Hyp][Ile(4R-OH,5-OH)][Trp(2-yl)]); thioether 4-8), in data set [1], the half-inhibitory concentration (IC50) at 72 h was 9300 nM. The molecule further gave an IC50 in data set [3] of 17.7 nM.

For `CC[C@H](C)[C@@H]1NC(=O)CNC(=O)[C@@H]2Cc3c([nH]c4ccccc34)S[C@@H](C)[C@H](NC(=O)CNC1=O)C(=O)N[C@@H](CC(N)=O)C(=O)N1C[C@H](O)C[C@H]1C(=O)N[C@@H]([C@@H](C)[C@@H](O)CO)C(=O)N2` (cyclo(GIG[X3]N[Hyp][Ile(4R-OH,5-OH)][Trp(2-yl)]); thioether 4-8), the IC50 at 72 h in data set [1] was determined as 1300 nM; in data set [2], 510 nM. In addition, in data set [3], it took 10 nM to reach half-maximal inhibition (IC50).

For the molecule `CC[C@H](C)[C@@H]1NC(=O)CNC(=O)[C@@H]2Cc3c([nH]c4ccc(O)cc34)S[C@@H](C)[C@H](NC(=O)CNC1=O)C(=O)N[C@@H](CC(N)=O)C(=O)N1C[C@H](O)C[C@H]1C(=O)N[C@@H]([C@@H](C)[C@@H](O)CO)C(=O)N2` (cyclo(GIG[X3]N[Hyp][Ile(4R-OH,5-OH)][X4]); thioether 4-8), the IC50 at 72 h in data set [1] worked out at 6900 nM; in data set [2], 880 nM. In data set [3], this molecule gave an IC50 of 14.7 nM.

As for `CC[C@H](C)[C@@H]1NC(=O)CNC(=O)[C@@H]2Cc3c([nH]c4ccccc34)S[C@H](C)[C@H](NC(=O)CNC1=O)C(=O)N[C@@H](CC(N)=O)C(=O)N1C[C@H](O)C[C@H]1C(=O)N[C@@H]([C@@H](C)[C@@H](O)CO)C(=O)N2` (cyclo(GIG[X5]N[Hyp][Ile(4R-OH,5-OH)][Trp(2-yl)]); thioether 4-8), in data set [1], the 50% inhibitory concentration (IC50) at 72 h was greater than 20000 nM. In data set [3], this molecule came in with a 50% inhibitory concentration (IC50) greater than 128 nM.

For the molecule `CCC(CC)[C@@H]1NC(=O)CNC(=O)[C@@H]2Cc3c([nH]c4ccccc34)S[C@@H](C)[C@H](NC(=O)CNC1=O)C(=O)N[C@@H](CC(N)=O)C(=O)N1C[C@H](O)C[C@H]1C(=O)N[C@@H]([C@@H](C)[C@@H](O)CO)C(=O)N2` (cyclo(G[Nva(3-Et)]G[X3]N[Hyp][Ile(4R-OH,5-OH)][Trp(2-yl)]); thioether 4-8), the IC50 at 72 h in data set [1] was determined as 610 nM; in data set [2], 200 nM. Also, the IC50 in the data set with HeLa is 600 nM; in the data set on HepG2, 110 nM; in data set [3], 9.5 nM.

In the case of `CCC(CC)[C@@H]1NC(=O)CNC(=O)[C@@H]2Cc3c([nH]c4ccc(O)cc34)S[C@@H](C)[C@H](NC(=O)CNC1=O)C(=O)N[C@@H](CC(N)=O)C(=O)N1C[C@H](O)C[C@H]1C(=O)N[C@@H]([C@@H](C)[C@@H](O)CO)C(=O)N2` (cyclo(G[Nva(3-Et)]G[X3]N[Hyp][Ile(4R-OH,5-OH)][X4]); thioether 4-8), the IC50 at 72 h in data set [1] amounted to 2400 nM; in data set [2], 510 nM. In data set [3], this molecule displayed an IC50 of 13.8 nM.
